Measured values published in ChEMBL document CHEMBL5291721, “A preclinical secondary pharmacology resource illuminates target-adverse drug reaction associations of marketed drugs” (Nat Commun, 2023).

Experiments:
Histamine H1 receptor = Histamine H1 receptor (Homo sapiens, UniProt P35367)
Endothelin-1 receptor = molecular target: T1, Endothelin-1 receptor (Homo sapiens, UniProt P25101)
T1 sequence (P25101 whole entry): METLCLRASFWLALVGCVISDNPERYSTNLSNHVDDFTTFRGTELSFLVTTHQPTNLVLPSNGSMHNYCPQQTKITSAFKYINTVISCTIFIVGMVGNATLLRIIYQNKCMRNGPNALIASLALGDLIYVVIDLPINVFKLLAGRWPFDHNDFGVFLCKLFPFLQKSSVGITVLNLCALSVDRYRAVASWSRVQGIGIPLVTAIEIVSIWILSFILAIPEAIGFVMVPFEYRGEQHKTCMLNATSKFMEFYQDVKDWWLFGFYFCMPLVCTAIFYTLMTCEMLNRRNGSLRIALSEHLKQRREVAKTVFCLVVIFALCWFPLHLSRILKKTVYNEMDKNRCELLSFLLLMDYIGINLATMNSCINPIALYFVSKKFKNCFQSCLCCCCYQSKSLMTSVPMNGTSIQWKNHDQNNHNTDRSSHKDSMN

Androgen receptor = molecular target: T2, Androgen receptor (Rattus norvegicus, UniProt P15207); format: functional
T2 sequence (P15207 whole entry): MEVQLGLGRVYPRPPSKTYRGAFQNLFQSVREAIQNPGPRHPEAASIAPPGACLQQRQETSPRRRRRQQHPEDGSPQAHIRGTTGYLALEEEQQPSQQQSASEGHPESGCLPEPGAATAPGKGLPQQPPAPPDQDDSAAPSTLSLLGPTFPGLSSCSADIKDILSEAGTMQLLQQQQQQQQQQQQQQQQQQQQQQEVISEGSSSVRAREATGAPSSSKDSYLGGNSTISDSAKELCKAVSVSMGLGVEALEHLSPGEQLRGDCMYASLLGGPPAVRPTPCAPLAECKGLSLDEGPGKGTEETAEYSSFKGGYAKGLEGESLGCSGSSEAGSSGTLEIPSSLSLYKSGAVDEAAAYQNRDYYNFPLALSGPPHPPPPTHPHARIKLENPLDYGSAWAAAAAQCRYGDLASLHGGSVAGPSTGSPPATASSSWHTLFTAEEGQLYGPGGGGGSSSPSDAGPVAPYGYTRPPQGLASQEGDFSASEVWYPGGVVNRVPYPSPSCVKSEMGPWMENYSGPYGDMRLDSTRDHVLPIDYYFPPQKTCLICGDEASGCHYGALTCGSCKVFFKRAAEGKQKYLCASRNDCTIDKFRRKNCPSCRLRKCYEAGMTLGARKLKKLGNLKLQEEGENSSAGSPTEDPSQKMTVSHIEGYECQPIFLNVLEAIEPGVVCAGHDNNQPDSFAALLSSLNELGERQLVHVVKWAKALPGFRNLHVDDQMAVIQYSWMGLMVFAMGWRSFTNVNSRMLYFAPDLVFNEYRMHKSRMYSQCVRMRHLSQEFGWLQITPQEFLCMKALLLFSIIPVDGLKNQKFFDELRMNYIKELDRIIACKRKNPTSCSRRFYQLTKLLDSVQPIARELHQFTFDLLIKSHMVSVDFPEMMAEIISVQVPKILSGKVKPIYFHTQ

[1] = molecular target: Gamma-aminobutyric acid receptor subunit alpha-1/alpha-2/beta-2/gamma-2 (Homo sapiens, UniProt P14867+P18507+P47869+P47870); format: functional, cell-based
B1 bradykinin receptor = molecular target: T3, B1 bradykinin receptor (Homo sapiens, UniProt P46663)
T3 sequence (P46663 whole entry): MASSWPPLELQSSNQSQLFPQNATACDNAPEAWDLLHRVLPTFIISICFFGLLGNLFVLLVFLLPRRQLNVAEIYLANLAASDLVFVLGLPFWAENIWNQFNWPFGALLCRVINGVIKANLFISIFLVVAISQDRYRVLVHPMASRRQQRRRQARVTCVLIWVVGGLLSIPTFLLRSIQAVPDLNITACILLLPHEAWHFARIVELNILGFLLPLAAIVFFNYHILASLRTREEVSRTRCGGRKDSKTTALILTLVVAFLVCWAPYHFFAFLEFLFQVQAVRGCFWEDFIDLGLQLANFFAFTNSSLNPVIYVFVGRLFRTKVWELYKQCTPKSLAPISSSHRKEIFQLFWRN

[2] = molecular target: 5-hydroxytryptamine receptor 2B (Homo sapiens, UniProt P41595)
[3] = molecular target: Voltage-dependent N-type calcium channel subunit alpha-1B (Rattus norvegicus, UniProt Q02294); format: functional
D(4) dopamine receptor = molecular target: T4, D(4) dopamine receptor (Homo sapiens, UniProt P21917)
T4 sequence (P21917 whole entry): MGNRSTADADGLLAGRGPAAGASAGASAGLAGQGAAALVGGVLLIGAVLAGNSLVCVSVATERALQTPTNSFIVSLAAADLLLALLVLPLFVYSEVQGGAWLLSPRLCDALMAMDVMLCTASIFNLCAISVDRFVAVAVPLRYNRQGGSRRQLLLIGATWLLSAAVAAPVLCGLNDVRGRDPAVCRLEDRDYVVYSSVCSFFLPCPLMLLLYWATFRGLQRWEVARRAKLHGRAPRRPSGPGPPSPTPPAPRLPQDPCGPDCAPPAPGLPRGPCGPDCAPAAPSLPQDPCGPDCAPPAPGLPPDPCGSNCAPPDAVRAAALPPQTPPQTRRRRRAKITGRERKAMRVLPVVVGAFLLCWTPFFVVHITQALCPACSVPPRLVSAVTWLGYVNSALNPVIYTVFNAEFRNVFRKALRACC

[4] = molecular target: T5, Muscarinic acetylcholine receptor M2 (Homo sapiens, UniProt P08172)
T5 sequence (P08172 whole entry): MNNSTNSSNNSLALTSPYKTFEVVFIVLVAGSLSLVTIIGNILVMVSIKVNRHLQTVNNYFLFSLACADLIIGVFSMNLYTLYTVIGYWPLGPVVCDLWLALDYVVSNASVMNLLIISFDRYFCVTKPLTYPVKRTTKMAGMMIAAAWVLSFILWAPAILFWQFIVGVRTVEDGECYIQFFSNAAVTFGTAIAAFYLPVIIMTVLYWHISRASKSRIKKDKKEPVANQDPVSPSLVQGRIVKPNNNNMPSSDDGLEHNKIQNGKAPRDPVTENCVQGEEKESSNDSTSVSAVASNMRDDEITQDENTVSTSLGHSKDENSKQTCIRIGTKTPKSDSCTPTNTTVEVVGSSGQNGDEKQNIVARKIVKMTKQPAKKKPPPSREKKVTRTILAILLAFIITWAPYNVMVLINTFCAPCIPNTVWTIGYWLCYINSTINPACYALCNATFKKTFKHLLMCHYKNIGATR

D(1A) dopamine receptor = D(1A) dopamine receptor (Homo sapiens, UniProt P21728)
Glucagon receptor = Glucagon receptor (Homo sapiens, UniProt P47871)
Further: assay procedure not described here.

Glucagon receptor, sequence (P47871 whole entry): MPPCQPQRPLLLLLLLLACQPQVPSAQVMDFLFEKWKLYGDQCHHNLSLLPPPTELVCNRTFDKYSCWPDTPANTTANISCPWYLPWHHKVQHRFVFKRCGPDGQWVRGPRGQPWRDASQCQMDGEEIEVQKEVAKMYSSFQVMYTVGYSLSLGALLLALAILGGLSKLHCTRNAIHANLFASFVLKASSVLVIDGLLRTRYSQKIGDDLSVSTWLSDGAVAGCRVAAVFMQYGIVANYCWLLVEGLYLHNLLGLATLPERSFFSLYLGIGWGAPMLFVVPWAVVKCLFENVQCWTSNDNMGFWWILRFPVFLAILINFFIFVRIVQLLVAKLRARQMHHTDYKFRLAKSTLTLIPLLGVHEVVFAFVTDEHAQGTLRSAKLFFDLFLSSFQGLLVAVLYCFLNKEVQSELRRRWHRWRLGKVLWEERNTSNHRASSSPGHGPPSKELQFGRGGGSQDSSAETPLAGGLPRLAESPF
Gamma-aminobutyric acid receptor subunit alpha-1/alpha-2/beta-2/gamma-2, sequence (P14867 whole entry): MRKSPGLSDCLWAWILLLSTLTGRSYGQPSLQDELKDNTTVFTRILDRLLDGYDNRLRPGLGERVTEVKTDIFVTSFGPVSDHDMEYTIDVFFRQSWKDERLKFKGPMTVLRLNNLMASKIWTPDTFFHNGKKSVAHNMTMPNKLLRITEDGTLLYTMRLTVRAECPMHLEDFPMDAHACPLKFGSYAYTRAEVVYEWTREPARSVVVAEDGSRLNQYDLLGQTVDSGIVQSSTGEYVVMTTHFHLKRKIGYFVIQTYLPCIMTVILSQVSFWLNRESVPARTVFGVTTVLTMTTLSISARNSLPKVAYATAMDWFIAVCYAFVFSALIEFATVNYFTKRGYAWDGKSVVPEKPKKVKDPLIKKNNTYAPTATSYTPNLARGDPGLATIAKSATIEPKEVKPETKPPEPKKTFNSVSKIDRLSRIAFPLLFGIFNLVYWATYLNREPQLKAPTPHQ
Gamma-aminobutyric acid receptor subunit alpha-1/alpha-2/beta-2/gamma-2, sequence (P47870 whole entry): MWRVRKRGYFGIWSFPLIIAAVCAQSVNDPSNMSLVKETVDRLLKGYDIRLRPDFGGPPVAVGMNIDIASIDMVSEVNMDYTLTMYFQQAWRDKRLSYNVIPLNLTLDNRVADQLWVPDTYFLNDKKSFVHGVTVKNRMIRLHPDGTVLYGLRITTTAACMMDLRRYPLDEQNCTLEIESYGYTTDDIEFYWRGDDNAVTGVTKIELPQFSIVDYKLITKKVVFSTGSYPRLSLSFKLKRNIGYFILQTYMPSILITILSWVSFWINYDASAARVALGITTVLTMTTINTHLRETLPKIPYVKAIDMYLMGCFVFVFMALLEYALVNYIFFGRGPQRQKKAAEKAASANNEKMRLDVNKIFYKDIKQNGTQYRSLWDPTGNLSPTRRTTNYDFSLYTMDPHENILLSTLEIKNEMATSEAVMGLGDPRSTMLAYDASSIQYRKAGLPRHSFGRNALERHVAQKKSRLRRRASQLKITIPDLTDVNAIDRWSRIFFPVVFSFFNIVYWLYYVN
Gamma-aminobutyric acid receptor subunit alpha-1/alpha-2/beta-2/gamma-2, sequence (P18507 whole entry): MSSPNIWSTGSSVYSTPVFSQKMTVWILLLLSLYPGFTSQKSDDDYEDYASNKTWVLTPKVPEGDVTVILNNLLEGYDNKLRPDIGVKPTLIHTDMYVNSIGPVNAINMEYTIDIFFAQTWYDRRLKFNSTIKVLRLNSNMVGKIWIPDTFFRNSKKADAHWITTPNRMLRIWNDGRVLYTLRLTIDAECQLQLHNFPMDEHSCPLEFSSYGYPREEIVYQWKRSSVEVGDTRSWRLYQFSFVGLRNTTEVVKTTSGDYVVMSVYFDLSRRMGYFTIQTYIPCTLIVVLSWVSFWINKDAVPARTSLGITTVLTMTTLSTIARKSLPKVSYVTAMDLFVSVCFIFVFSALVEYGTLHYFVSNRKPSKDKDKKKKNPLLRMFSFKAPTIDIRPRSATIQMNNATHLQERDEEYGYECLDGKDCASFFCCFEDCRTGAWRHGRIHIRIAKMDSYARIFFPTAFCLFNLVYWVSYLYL
Gamma-aminobutyric acid receptor subunit alpha-1/alpha-2/beta-2/gamma-2, sequence (P47869 whole entry): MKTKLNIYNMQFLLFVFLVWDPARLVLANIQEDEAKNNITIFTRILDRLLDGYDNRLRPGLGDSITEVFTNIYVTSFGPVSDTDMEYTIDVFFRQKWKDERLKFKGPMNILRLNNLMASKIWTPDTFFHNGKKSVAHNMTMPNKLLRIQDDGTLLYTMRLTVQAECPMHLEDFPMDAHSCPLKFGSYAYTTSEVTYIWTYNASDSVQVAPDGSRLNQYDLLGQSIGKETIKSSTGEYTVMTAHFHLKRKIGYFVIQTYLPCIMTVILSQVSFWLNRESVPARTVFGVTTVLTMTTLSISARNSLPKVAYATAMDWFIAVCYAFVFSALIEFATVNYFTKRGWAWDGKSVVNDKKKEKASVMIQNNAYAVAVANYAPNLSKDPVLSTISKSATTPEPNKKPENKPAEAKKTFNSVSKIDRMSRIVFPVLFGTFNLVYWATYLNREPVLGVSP
Voltage-dependent N-type calcium channel subunit alpha-1B, sequence (Q02294 whole entry): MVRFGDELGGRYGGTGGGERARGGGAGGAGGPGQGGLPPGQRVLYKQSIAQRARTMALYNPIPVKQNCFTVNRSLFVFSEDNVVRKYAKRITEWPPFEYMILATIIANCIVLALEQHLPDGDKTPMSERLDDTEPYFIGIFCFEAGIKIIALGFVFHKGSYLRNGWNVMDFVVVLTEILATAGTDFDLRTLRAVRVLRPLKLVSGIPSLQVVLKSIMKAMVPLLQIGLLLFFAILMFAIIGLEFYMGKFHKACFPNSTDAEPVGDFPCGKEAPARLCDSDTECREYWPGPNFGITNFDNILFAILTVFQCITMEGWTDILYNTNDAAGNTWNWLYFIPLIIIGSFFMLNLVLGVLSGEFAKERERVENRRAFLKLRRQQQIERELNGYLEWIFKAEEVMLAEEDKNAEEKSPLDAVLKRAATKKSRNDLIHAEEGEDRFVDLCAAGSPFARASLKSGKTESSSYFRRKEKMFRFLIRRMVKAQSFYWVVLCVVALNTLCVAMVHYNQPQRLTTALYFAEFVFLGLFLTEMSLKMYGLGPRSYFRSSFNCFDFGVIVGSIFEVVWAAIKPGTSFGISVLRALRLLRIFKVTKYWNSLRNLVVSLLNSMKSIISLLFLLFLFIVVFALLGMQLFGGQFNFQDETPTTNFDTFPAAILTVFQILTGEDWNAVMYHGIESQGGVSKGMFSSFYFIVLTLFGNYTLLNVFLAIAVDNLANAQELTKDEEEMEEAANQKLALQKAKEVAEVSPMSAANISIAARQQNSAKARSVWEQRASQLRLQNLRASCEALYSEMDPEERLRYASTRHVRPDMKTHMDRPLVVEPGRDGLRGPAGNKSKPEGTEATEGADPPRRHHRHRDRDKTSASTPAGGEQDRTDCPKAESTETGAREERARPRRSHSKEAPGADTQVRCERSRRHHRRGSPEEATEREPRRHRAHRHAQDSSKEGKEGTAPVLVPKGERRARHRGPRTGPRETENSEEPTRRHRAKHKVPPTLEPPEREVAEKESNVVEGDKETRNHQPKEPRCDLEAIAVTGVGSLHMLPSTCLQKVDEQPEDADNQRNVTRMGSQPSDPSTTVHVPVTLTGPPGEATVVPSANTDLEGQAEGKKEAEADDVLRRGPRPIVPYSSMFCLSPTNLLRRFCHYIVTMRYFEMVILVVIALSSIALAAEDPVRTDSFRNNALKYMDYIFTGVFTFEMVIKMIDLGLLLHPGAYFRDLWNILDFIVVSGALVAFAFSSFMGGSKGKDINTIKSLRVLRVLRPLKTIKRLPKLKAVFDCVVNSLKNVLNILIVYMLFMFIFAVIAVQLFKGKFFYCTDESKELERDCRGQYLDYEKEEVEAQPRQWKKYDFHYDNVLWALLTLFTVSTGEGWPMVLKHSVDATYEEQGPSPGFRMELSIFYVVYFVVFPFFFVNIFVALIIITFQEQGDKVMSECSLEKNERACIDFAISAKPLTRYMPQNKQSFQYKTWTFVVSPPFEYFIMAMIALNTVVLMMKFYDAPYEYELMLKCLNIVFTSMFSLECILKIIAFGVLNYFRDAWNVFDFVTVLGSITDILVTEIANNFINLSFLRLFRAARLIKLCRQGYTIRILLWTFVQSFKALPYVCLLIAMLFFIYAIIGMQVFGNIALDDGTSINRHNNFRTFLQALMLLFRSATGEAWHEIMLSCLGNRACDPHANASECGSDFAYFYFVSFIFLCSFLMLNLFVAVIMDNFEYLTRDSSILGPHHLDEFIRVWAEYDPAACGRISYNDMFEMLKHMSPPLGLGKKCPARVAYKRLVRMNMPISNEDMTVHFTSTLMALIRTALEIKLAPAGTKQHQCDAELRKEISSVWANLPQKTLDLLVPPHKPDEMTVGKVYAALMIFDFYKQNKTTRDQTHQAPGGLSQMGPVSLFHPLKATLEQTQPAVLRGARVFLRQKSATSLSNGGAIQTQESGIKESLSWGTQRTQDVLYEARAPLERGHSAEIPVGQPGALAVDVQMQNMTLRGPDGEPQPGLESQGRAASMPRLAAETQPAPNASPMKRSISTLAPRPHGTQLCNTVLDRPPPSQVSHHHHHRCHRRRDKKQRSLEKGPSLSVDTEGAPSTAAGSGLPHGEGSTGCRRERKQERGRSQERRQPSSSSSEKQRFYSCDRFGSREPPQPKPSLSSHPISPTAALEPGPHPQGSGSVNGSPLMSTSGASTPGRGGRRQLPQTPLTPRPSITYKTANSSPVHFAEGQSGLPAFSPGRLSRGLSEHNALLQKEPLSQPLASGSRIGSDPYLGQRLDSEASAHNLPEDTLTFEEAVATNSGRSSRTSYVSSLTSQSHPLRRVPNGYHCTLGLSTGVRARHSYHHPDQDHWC

SMILES	AC50 (Histamine H1 receptor) [µM]	AC50 (Endothelin-1 receptor) [µM]	AC50 (Androgen receptor) [µM]	AC50 [1] [µM]	further results
COc1ccc([C@@H]2CC(=O)c3c(O)cc(O)cc3O2)cc1O [HESPERETIN]	> 10				
CNCCc1ccc(OC(=O)C(C)C)c(OC(=O)C(C)C)c1 [IBOPAMINE]	> 30	> 30	> 30	> 30	
CN(C)CCCN1c2ccccc2CCc2ccccc21 [IMIPRAMINE]		> 30			AC50 (B1 bradykinin receptor): > 30 µM; AC50 [2]: 319 nM; AC50 [3]: > 10 µM; AC50 (D(4) dopamine receptor): 5.56 µM; AC50 [4]: 0.454 µM; AC50 (D(1A) dopamine receptor): 3.2 µM; AC50 (Glucagon receptor): > 30 µM
CCOC(=O)C1=C(C)NC(C)=C(C(=O)OCC)C1c1ccccc1/C=C/C(=O)OC(C)(C)C [LACIDIPINE]		> 30	> 30		
COC(=O)C1=C(C)NC(C)=C(C(=O)OCCN2CCN(C(c3ccccc3)c3ccccc3)CC2)C1c1cccc([N+](=O)[O-])c1 (stereo not given) [MANIDIPINE 6300]	3.7	> 30			
C=C1c2cccc(O)c2C(=O)C2=C(O)[C@]3(O)C(=O)C(C(N)=O)=C(O)[C@@H](N(C)C)[C@@H]3[C@@H](O)[C@H]12 [METHACYCLINE]	> 10				
CN(Cc1cnc2nc(N)nc(N)c2n1)c1ccc(C(=O)N[C@@H](CCC(=O)O)C(=O)O)cc1 [METHOTREXATE]		> 30			AC50 (B1 bradykinin receptor): > 30 µM; AC50 [2]: > 10000 nM; AC50 [3]: > 10 µM; AC50 [4]: > 10 µM; AC50 (D(1A) dopamine receptor): > 10 µM; AC50 (Glucagon receptor): > 30 µM
OC[C@H]1O[C@@H](n2cnc3c2NC=NC[C@H]3O)C[C@@H]1O [PENTOSTATIN]	> 30	> 30		> 30	
Cc1cccc(C)c1NC(=O)CC12CCCN1CCC2 [PILSICAINIDE]	> 30	> 30			
CC(C)c1cccc(C(C)C)c1O [PROPOFOL]		> 30		2	
CN[C@@H](C)[C@@H](O)c1ccccc1 [PSEUDOEPHEDRINE]	> 10	> 30			AC50 (B1 bradykinin receptor): > 30 µM; AC50 [3]: > 10 µM; AC50 (D(4) dopamine receptor): > 10 µM; AC50 [4]: > 10 µM; AC50 (D(1A) dopamine receptor): > 10 µM; AC50 (Glucagon receptor): > 30 µM
CCCN1CC(NS(=O)(=O)N(CC)CC)CC2Cc3c(O)cccc3CC21 (stereo not given) [QUINAGOLIDE]	2.8	> 30	> 30		AC50 [2]: 324 nM
O=C1OC(OC(=O)c2cccnc2Nc2cccc(C(F)(F)F)c2)c2ccccc21 (stereo not given) [TALNIFLUMATE]	> 30	> 30	> 30	> 30	
O=S1(=O)CCN(CN2CCS(=O)(=O)NC2)CN1 [TAUROLIDINE]	4.6		> 30	> 30	
C[C@]12C=CC(=O)C=C1CC[C@@H]1[C@@H]2CC[C@]2(C)OC(=O)CC[C@@H]12 [TESTOLACTONE]	> 10				
CCOC(=O)c1c(CSc2ccccc2)n(C)c2cc(Br)c(O)c(CN(C)C)c12 [UMIFENOVIR]	30	> 30	> 30		
